Our source for the Kb values is paper PMC11331526 (2024).

In this test the test system is d(G5C5)2 (G5C5) (DNA, duplex) GGGGGCCCCC
Kind of test: emission titration, Bard fit. Particulars: 50 mM potassium phosphate, pH 7, 298 K, table title per base pair, fit per nucleotide.

With `[Ru+2].c1ccc2c(c1)ccc1nc3c4cccnc4c4ncccc4c3nc12.c1cnc2c(ccc3nccnc32)n1.c1cnc2c(ccc3nccnc32)n1`, the Kb (site size 3.4, text prints 10^5) is given as 9.4(±1.2) × 10^6 M^-1. Consider `[Ru+2].c1ccc2cc3nc4c5cccnc5c5ncccc5c4nc3cc2c1.c1cnc2c(ccc3nccnc32)n1.c1cnc2c(ccc3nccnc32)n1`, for which the Kb (site size 2.6, text error ±0.6) is on record as 2.5(±0.4) × 10^6 M^-1.
